Assay results: ChEMBL document CHEMBL4507268 (2021)

Experiments:
Settings in all cases: Compound concentration 1.0 uM
[1] = target: Tyrosine-protein kinase Fyn (Homo sapiens) (UniProt P06241)
[2] = target: T1, Serine/threonine-protein kinase PLK4 (Homo sapiens) (UniProt O00444)
T1 sequence (whole entry): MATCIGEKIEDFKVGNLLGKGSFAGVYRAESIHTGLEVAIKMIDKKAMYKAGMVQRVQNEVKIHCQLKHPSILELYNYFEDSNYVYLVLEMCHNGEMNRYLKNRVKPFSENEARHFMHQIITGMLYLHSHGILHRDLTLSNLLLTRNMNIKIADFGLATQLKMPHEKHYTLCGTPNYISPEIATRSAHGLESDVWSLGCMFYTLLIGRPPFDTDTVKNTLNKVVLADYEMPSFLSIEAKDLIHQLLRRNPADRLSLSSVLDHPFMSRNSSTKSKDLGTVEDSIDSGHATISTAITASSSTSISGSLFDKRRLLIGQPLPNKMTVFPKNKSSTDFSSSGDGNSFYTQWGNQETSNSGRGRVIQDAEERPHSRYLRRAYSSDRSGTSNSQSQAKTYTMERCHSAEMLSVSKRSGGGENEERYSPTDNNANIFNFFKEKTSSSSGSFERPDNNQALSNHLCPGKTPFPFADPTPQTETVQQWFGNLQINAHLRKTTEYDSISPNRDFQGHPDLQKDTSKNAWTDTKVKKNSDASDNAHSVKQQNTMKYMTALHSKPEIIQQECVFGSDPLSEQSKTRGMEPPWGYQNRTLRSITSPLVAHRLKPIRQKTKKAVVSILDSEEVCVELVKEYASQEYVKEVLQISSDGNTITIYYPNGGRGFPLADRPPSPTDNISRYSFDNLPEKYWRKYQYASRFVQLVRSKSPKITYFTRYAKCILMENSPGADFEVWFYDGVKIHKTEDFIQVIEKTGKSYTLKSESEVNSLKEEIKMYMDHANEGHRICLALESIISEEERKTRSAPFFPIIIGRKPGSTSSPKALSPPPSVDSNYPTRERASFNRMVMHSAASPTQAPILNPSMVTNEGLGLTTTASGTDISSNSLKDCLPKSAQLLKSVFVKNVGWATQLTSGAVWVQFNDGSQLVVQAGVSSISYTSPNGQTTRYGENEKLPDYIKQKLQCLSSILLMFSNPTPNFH

[3] = target: Ribosomal protein S6 kinase alpha-1 (Homo sapiens) (UniProt Q15418)
[4] = target: T2, Serine/threonine-protein kinase ULK2 (Homo sapiens) (UniProt Q8IYT8)
T2 sequence (whole entry): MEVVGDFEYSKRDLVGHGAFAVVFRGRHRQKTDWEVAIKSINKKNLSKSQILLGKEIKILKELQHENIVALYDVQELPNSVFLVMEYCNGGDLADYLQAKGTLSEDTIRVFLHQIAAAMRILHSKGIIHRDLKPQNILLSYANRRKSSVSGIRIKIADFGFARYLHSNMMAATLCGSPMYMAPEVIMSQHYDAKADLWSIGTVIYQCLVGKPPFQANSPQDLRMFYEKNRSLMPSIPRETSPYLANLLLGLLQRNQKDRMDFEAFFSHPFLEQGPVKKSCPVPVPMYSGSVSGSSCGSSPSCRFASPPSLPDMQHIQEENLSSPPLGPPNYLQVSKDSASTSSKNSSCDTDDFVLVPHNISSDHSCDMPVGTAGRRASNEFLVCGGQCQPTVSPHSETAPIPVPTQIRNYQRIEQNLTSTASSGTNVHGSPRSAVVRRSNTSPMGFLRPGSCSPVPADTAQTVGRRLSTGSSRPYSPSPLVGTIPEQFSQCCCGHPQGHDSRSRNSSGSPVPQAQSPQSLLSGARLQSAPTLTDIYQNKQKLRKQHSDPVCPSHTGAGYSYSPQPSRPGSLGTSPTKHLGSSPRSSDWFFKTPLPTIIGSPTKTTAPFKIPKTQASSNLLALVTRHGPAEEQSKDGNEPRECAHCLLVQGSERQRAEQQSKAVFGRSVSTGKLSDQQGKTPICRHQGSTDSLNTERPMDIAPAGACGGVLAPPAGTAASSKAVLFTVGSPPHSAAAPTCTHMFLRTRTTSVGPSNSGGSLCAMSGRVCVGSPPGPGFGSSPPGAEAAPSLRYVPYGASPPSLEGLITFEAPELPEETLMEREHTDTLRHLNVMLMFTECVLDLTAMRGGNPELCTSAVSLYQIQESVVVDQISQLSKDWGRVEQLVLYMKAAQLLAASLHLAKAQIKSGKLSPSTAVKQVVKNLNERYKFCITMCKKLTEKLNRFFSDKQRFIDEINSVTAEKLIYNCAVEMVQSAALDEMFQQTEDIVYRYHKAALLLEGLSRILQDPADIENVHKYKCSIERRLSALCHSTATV

[5] = target: Tyrosine-protein kinase ABL2 (Homo sapiens) (UniProt P42684)
[6] = target: Dual specificity protein kinase CLK4 (Homo sapiens) (UniProt Q9HAZ1)
[7] = target: T3, Dual specificity tyrosine-phosphorylation-regulated kinase 2 (Homo sapiens) (UniProt Q92630)
T3 sequence (whole entry): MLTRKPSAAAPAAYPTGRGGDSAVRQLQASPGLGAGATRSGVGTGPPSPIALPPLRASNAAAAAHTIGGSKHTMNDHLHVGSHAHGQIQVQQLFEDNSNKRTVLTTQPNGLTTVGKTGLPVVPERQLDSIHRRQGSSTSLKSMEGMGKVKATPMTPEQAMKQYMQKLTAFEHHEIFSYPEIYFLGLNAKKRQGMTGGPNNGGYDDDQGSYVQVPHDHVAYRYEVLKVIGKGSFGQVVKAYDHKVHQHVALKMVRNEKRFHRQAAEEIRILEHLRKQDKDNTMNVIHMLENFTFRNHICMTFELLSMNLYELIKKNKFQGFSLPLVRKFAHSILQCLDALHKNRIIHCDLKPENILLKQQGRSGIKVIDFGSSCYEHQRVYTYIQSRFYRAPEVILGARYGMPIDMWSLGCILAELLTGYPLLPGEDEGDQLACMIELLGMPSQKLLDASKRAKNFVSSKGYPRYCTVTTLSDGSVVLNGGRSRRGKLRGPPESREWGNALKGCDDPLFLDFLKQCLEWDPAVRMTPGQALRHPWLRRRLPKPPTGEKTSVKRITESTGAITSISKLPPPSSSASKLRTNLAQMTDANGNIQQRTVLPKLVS

[8] = target: Vascular endothelial growth factor receptor 3 (Homo sapiens) (UniProt P35916)
[9] = target: Ribosomal protein S6 kinase alpha-3 (Homo sapiens) (UniProt P51812)
[10] = target: Ribosomal protein S6 kinase beta-1 (Homo sapiens) (UniProt P23443)

Measured: % residual kinase activity

Chain of Vascular endothelial growth factor receptor 3 (Homo sapiens) (P35916 whole entry): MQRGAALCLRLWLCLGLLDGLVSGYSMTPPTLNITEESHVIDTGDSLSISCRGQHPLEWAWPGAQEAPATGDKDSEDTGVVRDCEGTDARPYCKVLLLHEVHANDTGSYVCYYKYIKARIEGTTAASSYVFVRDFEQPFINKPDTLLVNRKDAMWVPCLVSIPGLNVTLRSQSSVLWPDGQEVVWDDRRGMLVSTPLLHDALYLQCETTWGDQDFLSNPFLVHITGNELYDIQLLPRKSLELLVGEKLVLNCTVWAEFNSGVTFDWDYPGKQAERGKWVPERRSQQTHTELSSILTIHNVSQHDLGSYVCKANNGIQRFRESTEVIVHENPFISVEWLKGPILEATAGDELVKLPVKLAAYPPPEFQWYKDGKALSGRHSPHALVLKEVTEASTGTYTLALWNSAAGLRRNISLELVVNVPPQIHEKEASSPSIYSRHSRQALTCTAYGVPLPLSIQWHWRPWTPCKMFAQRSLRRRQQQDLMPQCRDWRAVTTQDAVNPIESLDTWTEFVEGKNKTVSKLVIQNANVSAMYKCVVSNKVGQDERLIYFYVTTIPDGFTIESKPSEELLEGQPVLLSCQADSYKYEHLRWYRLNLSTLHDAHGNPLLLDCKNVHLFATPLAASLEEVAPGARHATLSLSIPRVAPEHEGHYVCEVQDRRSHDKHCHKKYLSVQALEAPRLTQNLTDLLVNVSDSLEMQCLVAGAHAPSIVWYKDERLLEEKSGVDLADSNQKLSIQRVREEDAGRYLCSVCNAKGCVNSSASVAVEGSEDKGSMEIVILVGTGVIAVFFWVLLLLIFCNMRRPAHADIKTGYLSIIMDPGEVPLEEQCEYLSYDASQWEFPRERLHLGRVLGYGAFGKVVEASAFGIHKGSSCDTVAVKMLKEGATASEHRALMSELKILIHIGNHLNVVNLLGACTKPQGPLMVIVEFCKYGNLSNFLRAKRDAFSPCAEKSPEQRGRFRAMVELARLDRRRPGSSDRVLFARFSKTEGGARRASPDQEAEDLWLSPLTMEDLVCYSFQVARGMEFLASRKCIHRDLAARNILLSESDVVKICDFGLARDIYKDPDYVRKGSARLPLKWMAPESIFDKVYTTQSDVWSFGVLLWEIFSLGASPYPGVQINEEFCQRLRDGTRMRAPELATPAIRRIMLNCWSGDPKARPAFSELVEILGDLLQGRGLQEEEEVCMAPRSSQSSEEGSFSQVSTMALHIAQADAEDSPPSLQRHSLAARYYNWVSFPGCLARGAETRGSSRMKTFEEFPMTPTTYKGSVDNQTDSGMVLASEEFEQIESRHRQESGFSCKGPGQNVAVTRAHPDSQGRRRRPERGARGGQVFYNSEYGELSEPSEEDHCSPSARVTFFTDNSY
Chain of Tyrosine-protein kinase Fyn (Homo sapiens) (P06241 2-537 limits assumed): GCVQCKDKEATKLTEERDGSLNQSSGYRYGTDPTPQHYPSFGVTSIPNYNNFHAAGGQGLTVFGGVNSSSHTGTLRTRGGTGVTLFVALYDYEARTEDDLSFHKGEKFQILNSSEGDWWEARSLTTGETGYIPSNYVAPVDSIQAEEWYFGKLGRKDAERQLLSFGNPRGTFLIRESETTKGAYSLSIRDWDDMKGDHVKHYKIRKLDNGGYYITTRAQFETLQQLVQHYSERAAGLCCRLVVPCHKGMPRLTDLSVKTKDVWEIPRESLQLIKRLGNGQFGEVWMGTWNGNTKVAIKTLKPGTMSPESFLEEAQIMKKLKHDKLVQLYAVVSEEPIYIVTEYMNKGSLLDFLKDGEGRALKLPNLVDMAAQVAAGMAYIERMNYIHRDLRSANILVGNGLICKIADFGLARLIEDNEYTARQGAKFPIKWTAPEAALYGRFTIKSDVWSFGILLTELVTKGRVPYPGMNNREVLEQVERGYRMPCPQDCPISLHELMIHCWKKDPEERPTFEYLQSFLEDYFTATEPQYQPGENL
Chain of Ribosomal protein S6 kinase alpha-3 (Homo sapiens) (P51812 whole entry): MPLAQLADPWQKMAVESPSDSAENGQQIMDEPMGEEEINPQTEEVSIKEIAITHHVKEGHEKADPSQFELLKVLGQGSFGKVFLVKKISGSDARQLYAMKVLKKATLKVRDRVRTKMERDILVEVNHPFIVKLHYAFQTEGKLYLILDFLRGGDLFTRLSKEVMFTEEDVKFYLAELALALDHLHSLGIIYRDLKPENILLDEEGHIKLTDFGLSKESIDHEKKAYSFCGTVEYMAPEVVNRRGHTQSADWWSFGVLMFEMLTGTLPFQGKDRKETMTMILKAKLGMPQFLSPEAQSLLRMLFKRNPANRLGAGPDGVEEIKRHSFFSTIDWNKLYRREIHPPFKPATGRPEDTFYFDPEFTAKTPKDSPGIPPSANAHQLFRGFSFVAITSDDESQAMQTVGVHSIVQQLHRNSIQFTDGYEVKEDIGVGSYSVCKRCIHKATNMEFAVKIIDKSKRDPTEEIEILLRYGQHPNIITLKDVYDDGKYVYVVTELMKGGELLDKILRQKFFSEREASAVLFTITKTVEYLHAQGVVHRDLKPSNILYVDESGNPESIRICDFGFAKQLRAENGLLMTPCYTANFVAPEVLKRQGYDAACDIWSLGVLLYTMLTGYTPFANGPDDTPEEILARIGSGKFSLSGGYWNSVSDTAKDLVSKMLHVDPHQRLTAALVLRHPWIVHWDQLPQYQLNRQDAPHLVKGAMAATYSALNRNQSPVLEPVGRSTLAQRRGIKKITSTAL
Chain of Tyrosine-protein kinase ABL2 (Homo sapiens) (P42684 whole entry): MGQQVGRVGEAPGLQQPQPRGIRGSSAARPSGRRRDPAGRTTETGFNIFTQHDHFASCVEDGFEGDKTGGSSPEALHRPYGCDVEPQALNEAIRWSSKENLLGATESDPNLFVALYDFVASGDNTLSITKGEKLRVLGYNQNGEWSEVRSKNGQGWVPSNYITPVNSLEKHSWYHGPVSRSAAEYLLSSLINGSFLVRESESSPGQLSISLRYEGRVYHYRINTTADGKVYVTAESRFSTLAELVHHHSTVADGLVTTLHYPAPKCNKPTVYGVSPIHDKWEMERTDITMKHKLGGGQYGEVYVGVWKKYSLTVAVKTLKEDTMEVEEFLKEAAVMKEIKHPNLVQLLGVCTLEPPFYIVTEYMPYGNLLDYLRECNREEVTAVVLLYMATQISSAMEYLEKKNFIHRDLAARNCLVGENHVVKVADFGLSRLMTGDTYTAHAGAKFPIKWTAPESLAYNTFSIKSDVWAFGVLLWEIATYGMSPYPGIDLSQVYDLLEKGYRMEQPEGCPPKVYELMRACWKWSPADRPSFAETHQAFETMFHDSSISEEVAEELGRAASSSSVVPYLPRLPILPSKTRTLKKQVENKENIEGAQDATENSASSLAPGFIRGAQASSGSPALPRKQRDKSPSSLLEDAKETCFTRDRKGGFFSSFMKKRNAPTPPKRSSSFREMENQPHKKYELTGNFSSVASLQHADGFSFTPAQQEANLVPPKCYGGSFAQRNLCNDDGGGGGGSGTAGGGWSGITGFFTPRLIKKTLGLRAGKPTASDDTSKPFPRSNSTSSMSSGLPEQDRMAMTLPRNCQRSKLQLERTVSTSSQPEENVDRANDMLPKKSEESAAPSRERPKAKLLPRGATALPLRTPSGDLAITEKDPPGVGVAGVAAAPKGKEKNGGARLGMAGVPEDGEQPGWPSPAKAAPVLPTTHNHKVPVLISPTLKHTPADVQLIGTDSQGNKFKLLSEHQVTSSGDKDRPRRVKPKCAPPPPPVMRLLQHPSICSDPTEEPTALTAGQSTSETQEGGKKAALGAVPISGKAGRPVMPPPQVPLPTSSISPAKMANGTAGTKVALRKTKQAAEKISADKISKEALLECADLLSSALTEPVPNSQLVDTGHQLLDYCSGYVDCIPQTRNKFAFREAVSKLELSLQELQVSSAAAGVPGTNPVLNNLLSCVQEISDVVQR
Chain of Dual specificity protein kinase CLK4 (Homo sapiens) (Q9HAZ1 whole entry, looked up): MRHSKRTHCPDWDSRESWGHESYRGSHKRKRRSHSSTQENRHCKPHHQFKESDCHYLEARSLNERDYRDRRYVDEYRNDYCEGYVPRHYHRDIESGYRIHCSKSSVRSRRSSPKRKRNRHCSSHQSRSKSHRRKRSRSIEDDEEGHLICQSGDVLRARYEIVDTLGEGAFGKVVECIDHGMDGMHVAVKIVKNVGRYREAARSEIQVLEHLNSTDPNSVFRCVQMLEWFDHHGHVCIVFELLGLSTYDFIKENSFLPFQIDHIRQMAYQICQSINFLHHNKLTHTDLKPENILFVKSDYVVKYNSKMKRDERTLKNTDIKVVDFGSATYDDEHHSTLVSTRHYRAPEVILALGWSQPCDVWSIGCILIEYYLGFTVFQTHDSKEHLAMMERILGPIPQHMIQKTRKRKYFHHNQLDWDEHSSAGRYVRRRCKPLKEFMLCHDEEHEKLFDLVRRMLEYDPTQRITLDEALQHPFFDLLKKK
Chain of Ribosomal protein S6 kinase beta-1 (Homo sapiens) (P23443 whole entry, looked up): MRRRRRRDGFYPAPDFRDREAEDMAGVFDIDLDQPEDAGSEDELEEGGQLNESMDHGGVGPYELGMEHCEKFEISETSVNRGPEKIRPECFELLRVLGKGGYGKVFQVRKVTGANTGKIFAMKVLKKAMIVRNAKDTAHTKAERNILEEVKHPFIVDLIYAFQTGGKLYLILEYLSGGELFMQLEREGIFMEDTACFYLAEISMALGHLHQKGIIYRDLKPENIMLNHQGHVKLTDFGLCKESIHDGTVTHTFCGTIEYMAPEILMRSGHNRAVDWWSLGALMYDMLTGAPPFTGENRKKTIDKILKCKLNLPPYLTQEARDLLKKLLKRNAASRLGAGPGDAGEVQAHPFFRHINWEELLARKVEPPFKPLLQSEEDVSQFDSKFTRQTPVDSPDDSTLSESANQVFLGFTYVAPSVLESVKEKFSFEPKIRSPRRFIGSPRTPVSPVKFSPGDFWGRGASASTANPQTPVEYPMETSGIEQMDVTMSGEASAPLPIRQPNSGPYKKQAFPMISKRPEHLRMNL

CN1CCN(c2cnc3c(C4CCN(C(=O)c5ccc(OC(F)(F)F)cc5N)CC4)ncnc3c2)CC1 [BAY-885]
inactive: [1] 129% | [2] 88% | [3] 121% | [4] 102% | [5] 93% | [6] 118% | [7] 105% | [8] 98% | [9] 109% | [10] 118%
